We go through 21 molecules from patent US12312332B2 (Merck Sharp & Dohme LLC., priority 2019, dated 2025).

The target of this assay is T1, human OX2R (Homo sapiens, UniProt O43614).
T1 construct: expressed in transfected cells; host or cells: Chinese hamster ovary (CHO) cells, kept under G418 selection
T1 sequence (O43614 1-444): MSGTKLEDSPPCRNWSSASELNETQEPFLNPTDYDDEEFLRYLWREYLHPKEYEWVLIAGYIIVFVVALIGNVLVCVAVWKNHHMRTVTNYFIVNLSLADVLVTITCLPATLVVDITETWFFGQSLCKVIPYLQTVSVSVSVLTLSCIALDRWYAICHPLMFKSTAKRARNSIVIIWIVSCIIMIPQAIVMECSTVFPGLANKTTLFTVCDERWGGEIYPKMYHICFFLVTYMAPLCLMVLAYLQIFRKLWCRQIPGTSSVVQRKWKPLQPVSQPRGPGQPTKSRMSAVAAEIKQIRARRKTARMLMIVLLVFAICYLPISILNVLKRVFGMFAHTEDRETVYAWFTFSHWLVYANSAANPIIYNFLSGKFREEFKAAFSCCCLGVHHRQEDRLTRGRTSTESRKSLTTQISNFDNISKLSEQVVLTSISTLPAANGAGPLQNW
Description: IPOne (IP-One) orexin receptor agonist assay in CHO cells expressing human OX2R. It counts as cell-based. The following applies: for pEC50: CHO cells expressing human OX2R, IP-One detection, 2 hours incubation, four parameter logistic fit, read-out: OX2R Potency, EC50; for % max agonist effect (Emax): human OX2R, percentage of sample raw value/mean max effect (reference compound at 1 uM with 100% activity). The source says:
The utility of the compounds in accordance with the present invention as orexin receptor OX1R and/or OX2R agonists may be readily determined without undue experimentation by methodology well known in the art. Both the OX1R and/or OX2R G-coupled protein receptors (GPCRs) couple through the Gaq signaling pathway, which ultimately promotes calcium mobilization via inositol triphosphate (IP3) production. […] The utility of the compounds in accordance with the present invention as orexin receptor OX1R and/or OX2R agonists may be determined utilizing this assay.
In a typical experiment, the OX1 and OX2 receptor agonist activity is determined in accordance with the following general experimental method. Chinese hamster ovary (CHO) cells expressing human OX1R and/or the human OX2R were grown in Iscove's modified DMEM containing glutaMAX™, 1% G418, 100 U/mL penicillin, 100 μg/mL streptomycin and 10% heat-inactivated qualified fetal bovine serum (FBS). […] During this incubation, IP-one detection reagents were prepared (38:1:1 lysis buffer:D2:AB-cryptate reagents).
For each compound, data were fit to a four parameter logistic fit (ActivityBase software) and the EC50 was reported as the inflection point of the resulting curve. Percent effect for each test compound was determined as the percentage of sample raw value/mean max effect, where the mean max effect was derived from the mean raw value of 32 control wells per assay plate (using Orexin A (cat #003-30) at 1 μM for human OX1R and a reference compound at 1 uM with 100% activity previously established by comparison to Orexin A for human OX2R). The intrinsic orexin receptor agonist activity of a compound which may be used in the present invention may be determined by these assays.

pEC50: −log10 of the molar value.

For orientation: pEC50 means −log10 of the EC50, conventionally taken in molar units. Turning to `CS(=O)(=O)N[C@H]1CCN(c2ccc(F)c(C(F)F)c2)[C@H]1CO[C@H]1CC[C@@H](c2ccccc2)CC1` [Example 21, N-((2R,3S)-1-(3-(difluoromethyl)-4-fluorophenyl)-2-((((CIS)-4-phenylcyclohexyl)oxy)methyl)pyrrolidin-3-yl)methanesulfonamide], the pEC50 was 5.07 and the “% max agonist effect (Emax)” value is given as 57.0%.

On to `CS(=O)(=O)N[C@H]1CCN(c2ccc(C(F)F)cc2F)[C@H]1CO[C@H]1CC[C@@H](c2ccccc2)CC1` [Example 22, N-((2R,3S)-1-(4-(difluoromethyl)-2-fluorophenyl)-2-((((CIS)-4-phenylcyclohexyl)oxy)methyl)pyrrolidin-3-yl)methanesulfonamide], for which the pEC50 was < 5.00 and the “% max agonist effect (Emax)” value is 57.5%.

For the molecule `CS(=O)(=O)N[C@H]1CCN(c2ccc(=O)n(C(F)F)c2)[C@H]1CO[C@H]1CC[C@@H](c2ccccc2)CC1` [Example 23, N-((2R,3S)-1-(1-(difluoromethyl)-6-oxo-1,6-dihydropyridin-3-yl)-2-((((CIS)-4-phenylcyclohexyl)-oxy)methyl)pyrrolidin-3 - yl)methanesulfonamide], the pEC50 was 5.33 and the “% max agonist effect (Emax)” value is listed as 81.2%.

In the case of `CS(=O)(=O)N[C@H]1CCN(c2ccc(C(F)F)nc2)[C@H]1CO[C@H]1CC[C@@H](c2ccccc2)CC1` [Example 24, N-((2R,3S)-1-(6-(difluoromethyl)pyridin-3-yl)-2-((((CIS)-4-phenylcyclohexyl)-oxy)methyl)pyrrolidin-3-yl)methanesulfonamide], the pEC50 was 7.30 and the “% max agonist effect (Emax)” value is 100.7%.

Consider `CS(=O)(=O)N[C@H]1CCN(c2ccnc(C#N)c2)[C@H]1CO[C@H]1CC[C@@H](c2ccccc2)CC1` [Example 25, N-((2R,3S)-1-(2-cyanopyridin-4-yl)-2-((((CIS)-4-phenylcyclohexyl)oxy)methyl)pyrrolidin-3-yl)methanesulfonamide], for which the pEC50 is 5.24 and the “% max agonist effect (Emax)” value turned out to be 78.6%.

In the case of `CS(=O)(=O)N[C@H]1CCN(c2cncs2)[C@H]1CO[C@H]1CC[C@@H](c2ccccc2)CC1` [Example 26, N-((2R,3S)-2-((((CIS)-4-phenylcyclohexyl)oxy)methyl)-1-(thiazol-5-yl)pyrrolidin-3-yl)methanesulfonamide], the pEC50 is 6.35 and the “% max agonist effect (Emax)” value was 99.0%.

In the case of `CS(=O)(=O)N[C@H]1CCN(c2nccs2)[C@H]1CO[C@H]1CC[C@@H](c2ccccc2)CC1` [Example 27, N-((2R,3S)-2-((((CIS)-4-phenylcyclohexyl)oxy)methyl)-1-(thiazol-2-yl)pyrrolidin-3-yl)methanesulfonamide], the pEC50 is 7.15 and the “% max agonist effect (Emax)” value is 98.9%.

For `Cn1ccnc1N1CC[C@H](NS(C)(=O)=O)[C@@H]1CO[C@H]1CC[C@@H](c2ccccc2)CC1` [Example 28, N-((2R,3S)-1-(1-methyl-1H-imidazol-2-yl)-2-((((CIS)-4-phenylcyclohexyl)oxy)methyl)pyrrolidin-3-yl)methanesulfonamide], the pEC50 was 6.98 and the “% max agonist effect (Emax)” value was 100.0%.

As to `Cc1cnc(N2CC[C@H](NS(C)(=O)=O)[C@@H]2CO[C@H]2CC[C@@H](c3ccccc3)CC2)n1C` [Example 29, N-((2R,3S)-1-(1,5-dimethyl-1H-imidazol-2-yl)-2-((((CIS)-4-phenylcyclohexyl)oxy)methyl)pyrrolidin-3-yl)methanesulfonamide], the pEC50 is 6.44 and the “% max agonist effect (Emax)” value was 100.0%.

As for `Cc1c(N2CC[C@H](NS(C)(=O)=O)[C@@H]2CO[C@H]2CC[C@@H](c3ccccc3)CC2)cnn1C` [Example 30, N-((2R,3S)-1-(1,5-dimethyl-1H-pyrazol-4-yl)-2-((((CIS)-4-phenylcyclohexyl)oxy)methyl)pyrrolidin-3-yl)methanesulfonamide], the pEC50 was 6.83 and the “% max agonist effect (Emax)” value is 100.0%.

Take `Cn1nnnc1N1CC[C@H](NS(C)(=O)=O)[C@@H]1CO[C@H]1CC[C@@H](c2ccccc2)CC1` [Example 31, N-((2R,3S)-1-(1-methyl-1H-tetrazol-5-yl)-2-((((CIS)-4-phenylcyclohexyl)oxy)methyl)pyrrolidin-3-yl)methanesulfonamide]: the pEC50 is 8.59 and the “% max agonist effect (Emax)” value came out at 101.5%.

As to `Cc1ncc(N2CC[C@H](NS(C)(=O)=O)[C@@H]2CO[C@H]2CC[C@@H](c3ccccc3)CC2)n1C` [Example 32, N-((2R,3S)-1-(1,2-dimethyl-1H-imidazol-5-yl)-2-((((CIS)-4-phenylcyclohexyl)oxy)methyl)pyrrolidin-3-yl)methanesulfonamide], the pEC50 is 7.43 and the “% max agonist effect (Emax)” value stood at 100.2%.

For `CS(=O)(=O)N[C@H]1CCN(c2ncns2)[C@H]1CO[C@H]1CC[C@@H](c2ccccc2)CC1` [Example 33, N-((2R,3S)-2-((((CIS)-4-phenylcyclohexyl)oxy)methyl)-1-(1,2,4-thiadiazol-5-yl)pyrrolidin-3-yl)methanesulfonamide], the pEC50 is 6.84 and the “% max agonist effect (Emax)” value was found to be 101.0%.

As to `CS(=O)(=O)N[C@H]1CCN(c2ccc(C(F)(F)F)nc2)[C@H]1CO[C@H]1CC[C@@H](c2ccccc2)CC1` [Example 34, N-((2R,3S)-2-((((CIS)-4-phenylcyclohexyl)oxy)methyl)-1-(6-(trifluoromethyl)pyridin-3-yl)pyrrolidin-3-yl)methanesulfonamide], the pEC50 was 7.15 and the “% max agonist effect (Emax)” value was determined as 99.6%.

In the case of `CS(=O)(=O)N[C@H]1CCN(c2ccc(OC(F)F)cn2)[C@H]1CO[C@H]1CC[C@@H](c2ccccc2)CC1` [Example 35, N-((2R,3S)-1-(5-(difluoromethoxy)pyridin-2-yl)-2-((((CIS)-4-phenylcyclohexyl)oxy)methyl)pyrrolidin-3-yl)methanesulfonamide], the pEC50 is 6.75 and the “% max agonist effect (Emax)” value amounted to 104.3%.

On to `CS(=O)(=O)N[C@H]1CCN(c2ccc(OCCF)cc2)[C@H]1CO[C@H]1CC[C@@H](c2ccccc2)CC1` [Example 36, N-((2R,3S)-1-(4-(2-fluoroethoxy)phenyl)-2-((((CIS)-4-phenylcyclohexyl)oxy)methyl)pyrrolidin-3-yl)methanesulfonamide], for which the pEC50 was 5.55 and the “% max agonist effect (Emax)” value came to 54.1%.

As to `Cc1nnc(N2CC[C@H](NS(C)(=O)=O)[C@@H]2CO[C@H]2CC[C@@H](c3ccccc3)CC2)o1` [Example 37, N-((2R,3 S)-1-(5-methyl-1,3,4-oxadiazol-2-yl)-2-((((CIS)-4-phenylcyclohexyl)oxy)methyl)pyrrolidin-3-yl)methanesulfonamide], the pEC50 is 6.17 and the “% max agonist effect (Emax)” value was 101.5%.

With `CS(=O)(=O)N[C@H]1CCN(c2ncccn2)[C@H]1CO[C@H]1CC[C@@H](c2ccccc2)CC1` [Example 38, N-((2R,3S)-2-((((CIS)-4-phenylcyclohexyl)oxy)methyl)-1-(pyrimidin-2-yl)pyrrolidin-3-yl)methanesulfonamide], the pEC50 was 6.11 and the “% max agonist effect (Emax)” value is 97.1%.

`CS(=O)(=O)N[C@H]1CCN(c2occc2C#N)[C@H]1CO[C@H]1CC[C@@H](c2ccccc2)CC1` [Example 39, N-((2R,3 S)-1-(3-cyanofuran-2-yl)-2-((((CIS)-4-phenylcyclohexyl)oxy)methyl)pyrrolidin-3-yl)methanesulfonamide]: the pEC50 was 6.21 and the “% max agonist effect (Emax)” value worked out at 98.4%.

For the molecule `Cn1cc(N2CC[C@H](NS(C)(=O)=O)[C@@H]2CO[C@H]2CC[C@@H](c3ccccc3)CC2)cn1` [Example 40, N-((2R,3S)-1-(1-methyl-1H-pyrazol-4-yl)-2-((((CIS)-4-phenylcyclohexyl)oxy)methyl)pyrrolidin-3-yl)methanesulfonamide], the pEC50 was 6.37 and the “% max agonist effect (Emax)” value stood at 98.8%.

For the molecule `CS(=O)(=O)N[C@H]1CCN(c2cnc(C(F)(F)F)nc2)[C@H]1CO[C@H]1CC[C@@H](c2ccccc2)CC1` [Example 41], the pEC50 was 6.76 and the “% max agonist effect (Emax)” value is 100.2%.
